System: 967376-340-R-J2-PDC multicell spheroid viability
Assay: Anticancer human tumor 967376-340-R-J2-PDC patient-derived colon adenocarcinoma cell line growth inhibition [PI3K]
Settings: for IC50: curve of first compound; for viability, T/C: stronger effect = lower value
Outline: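 Spheroid viability read-out. Co-cultures contained the tumor line plus HUVEC and human MSCs. Each agent was paired with a PI3K inhibitor (inavolisib, alpelisib, duvelisib, copanlisib) across half-log dilutions starting at clinical Cmax, or at 10 microM when Cmax was unknown.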

[1] = second compound 0.0316 µM, first compound 0.0316 µM
[2] = second compound 0.0316 µM, first compound 0.1 µM
[3] = second compound 0.0316 µM, first compound 0.316 µM
[4] = second compound 0.0316 µM, first compound 1 µM
[5] = second compound 0.0316 µM, first compound 3.16 µM
[6] = second compound 0.0316 µM, first compound 10 µM
[7] = second compound 0.1 µM, first compound 0.0316 µM
[8] = second compound 0.1 µM, first compound 0.1 µM
[9] = second compound 0.1 µM, first compound 0.316 µM
[10] = second compound 0.1 µM, first compound 1 µM
[11] = second compound 0.1 µM, first compound 3.16 µM
[12] = second compound 0.1 µM, first compound 10 µM
[13] = second compound 0.316 µM, first compound 0.0316 µM
[14] = second compound 0.316 µM, first compound 0.1 µM
[15] = second compound 0.316 µM, first compound 0.316 µM
[16] = second compound 0.316 µM, first compound 1 µM
[17] = second compound 0.316 µM, first compound 3.16 µM
[18] = second compound 0.316 µM, first compound 10 µM
[19] = second compound 1 µM, first compound 0.0316 µM
[20] = second compound 1 µM, first compound 0.1 µM
[21] = second compound 1 µM, first compound 0.316 µM
[22] = second compound 1 µM, first compound 1 µM
[23] = second compound 1 µM, first compound 3.16 µM
[24] = second compound 1 µM, first compound 10 µM
[25] = second compound 3.16 µM, first compound 0.0316 µM
[26] = second compound 3.16 µM, first compound 0.1 µM
[27] = second compound 3.16 µM, first compound 0.316 µM
[28] = second compound 3.16 µM, first compound 1 µM
[29] = second compound 3.16 µM, first compound 3.16 µM
[30] = second compound 3.16 µM, first compound 10 µM
[31] = second compound 10 µM, first compound 0.0316 µM
[32] = second compound 10 µM, first compound 0.1 µM
[33] = second compound 10 µM, first compound 0.316 µM
[34] = second compound 10 µM, first compound 1 µM
[35] = second compound 10 µM, first compound 3.16 µM
[36] = second compound 10 µM, first compound 10 µM
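Note: spheroids exposed to agents for 7 days before read-out.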
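Throughout, for viability, T/C: luminescence used as surrogate of cell viability.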

C#Cc1c(F)ccc2cc(O)cc(-c3ncc4c(N5CC6CCC(C5)N6)nc(OCC56CCCN5CC(F)C6)nc4c3F)c12 (stereo unspecified) + Cc1nc(NC(=O)N2CCCC2C(N)=O)sc1-c1ccnc(C(C)(C)C(F)(F)F)c1
IC50 (second compound 0.0316 µM): > 10 µM
IC50 (second compound 0.1 µM): > 10 µM
IC50 (second compound 0.316 µM): 9.86 µM
IC50 (second compound 1 µM): 5.16 µM
IC50 (second compound 3.16 µM): 3.53 µM
IC50 (second compound 10 µM): < 0.0316 µM
viability, T/C [1]: 104%
viability, T/C [2]: 85.6%
viability, T/C [3]: 81.8%
viability, T/C [4]: 82.7%
viability, T/C [5]: 80.7%
viability, T/C [6]: 68%
viability, T/C [7]: 103%
viability, T/C [8]: 81.7%
viability, T/C [9]: 82.3%
viability, T/C [10]: 70.4%
viability, T/C [11]: 80.8%
viability, T/C [12]: 69.6%
viability, T/C [13]: 64.3%
viability, T/C [14]: 90%
viability, T/C [15]: 74.5%
viability, T/C [16]: 69.8%
viability, T/C [17]: 78.5%
viability, T/C [18]: 49.8%
viability, T/C [19]: 65.1%
viability, T/C [20]: 68.3%
viability, T/C [21]: 72.5%
viability, T/C [22]: 66.8%
viability, T/C [23]: 60.3%
viability, T/C [24]: 35.5%
viability, T/C [25]: 47.6%
viability, T/C [26]: 75.2%
viability, T/C [27]: 59%
viability, T/C [28]: 59.5%
viability, T/C [29]: 49.3%
viability, T/C [30]: 34.9%
viability, T/C [31]: 47.2%
viability, T/C [32]: 41.7%
viability, T/C [33]: 51.5%
viability, T/C [34]: 37.3%
viability, T/C [35]: 36.1%
viability, T/C [36]: 16.9%

CC(Cn1ccc(-c2ccc(C#N)c(Cl)c2)n1)NC(=O)c1cc(C(C)O)[nH]n1 (stereo unspecified) + Cc1nc(NC(=O)N2CCCC2C(N)=O)sc1-c1ccnc(C(C)(C)C(F)(F)F)c1
IC50 (second compound 0.0316 µM): > 10 µM
IC50 (second compound 0.1 µM): > 10 µM
IC50 (second compound 0.316 µM): > 10 µM
IC50 (second compound 1 µM): > 10 µM
IC50 (second compound 3.16 µM): > 10 µM
IC50 (second compound 10 µM): > 10 µM
viability, T/C [1]: 90.6%
viability, T/C [2]: 118%
viability, T/C [3]: 104%
viability, T/C [4]: 93.9%
viability, T/C [5]: 109%
viability, T/C [6]: 102%
viability, T/C [7]: 95.1%
viability, T/C [8]: 103%
viability, T/C [9]: 91.6%
viability, T/C [10]: 100%
viability, T/C [11]: 92.9%
viability, T/C [12]: 119%
viability, T/C [13]: 69.3%
viability, T/C [14]: 94.3%
viability, T/C [15]: 95%
viability, T/C [16]: 92.7%
viability, T/C [17]: 102%
viability, T/C [18]: 73.8%
viability, T/C [19]: 58%
viability, T/C [20]: 66.8%
viability, T/C [21]: 75.2%
viability, T/C [22]: 72.5%
viability, T/C [23]: 83.5%
viability, T/C [24]: 65.7%
viability, T/C [25]: 54.4%
viability, T/C [26]: 62.3%
viability, T/C [27]: 61.5%
viability, T/C [28]: 52.5%
viability, T/C [29]: 62.9%
viability, T/C [30]: 73.7%
viability, T/C [31]: 57.3%
viability, T/C [32]: 58.4%
viability, T/C [33]: 43.3%
viability, T/C [34]: 60.9%
viability, T/C [35]: 72.1%
viability, T/C [36]: 48.2%

CC1(C)CCC(Nc2ncc(C(F)(F)F)c(-c3c[nH]c4c(P(C)(C)=O)c(C#N)ccc34)n2)CN1 (stereo unspecified) + Cc1nc(NC(=O)N2CCCC2C(N)=O)sc1-c1ccnc(C(C)(C)C(F)(F)F)c1
IC50 (second compound 0.0316 µM): 3.81 µM
IC50 (second compound 0.1 µM): 6.06 µM
IC50 (second compound 0.316 µM): 3.95 µM
IC50 (second compound 1 µM): 0.629 µM
IC50 (second compound 3.16 µM): 0.386 µM
IC50 (second compound 10 µM): 0.0432 µM
viability, T/C [1]: 82.8%
viability, T/C [2]: 72.5%
viability, T/C [3]: 55.6%
viability, T/C [4]: 54.7%
viability, T/C [5]: 61.5%
viability, T/C [6]: 40.8%
viability, T/C [7]: 78.4%
viability, T/C [8]: 68.8%
viability, T/C [9]: 69.7%
viability, T/C [10]: 66.8%
viability, T/C [11]: 63%
viability, T/C [12]: 41.2%
viability, T/C [13]: 67.5%
viability, T/C [14]: 73.3%
viability, T/C [15]: 48.5%
viability, T/C [16]: 58.5%
viability, T/C [17]: 60.4%
viability, T/C [18]: 39.2%
viability, T/C [19]: 51.6%
viability, T/C [20]: 53.8%
viability, T/C [21]: 72.8%
viability, T/C [22]: 43.6%
viability, T/C [23]: 45.5%
viability, T/C [24]: 34.1%
viability, T/C [25]: 58.9%
viability, T/C [26]: 51.2%
viability, T/C [27]: 49.4%
viability, T/C [28]: 47.3%
viability, T/C [29]: 41.4%
viability, T/C [30]: 30.7%
viability, T/C [31]: 54.8%
viability, T/C [32]: 39.1%
viability, T/C [33]: 39.6%
viability, T/C [34]: 34.9%
viability, T/C [35]: 31.4%
viability, T/C [36]: 23.3%

Source: PubChem BioAssay AID1963962 (Molecular Pharmacology Branch, DTP, NCI, 2024)
